Test results published in patent US20250262201A1, “COMPOUNDS AND METHODS USEFUL FOR STABILIZING PHENYLALANINE HYDROXYLASE MUTATIONS” (Agios Pharmaceuticals, Inc., priority 2022, published 2025).

Molecular target: T1, human PAH with the R408W mutation (Homo sapiens, UniProt P00439, R408W)
T1 construct: expressed in transfected cells
T1 sequence (P00439 1-452 R408W): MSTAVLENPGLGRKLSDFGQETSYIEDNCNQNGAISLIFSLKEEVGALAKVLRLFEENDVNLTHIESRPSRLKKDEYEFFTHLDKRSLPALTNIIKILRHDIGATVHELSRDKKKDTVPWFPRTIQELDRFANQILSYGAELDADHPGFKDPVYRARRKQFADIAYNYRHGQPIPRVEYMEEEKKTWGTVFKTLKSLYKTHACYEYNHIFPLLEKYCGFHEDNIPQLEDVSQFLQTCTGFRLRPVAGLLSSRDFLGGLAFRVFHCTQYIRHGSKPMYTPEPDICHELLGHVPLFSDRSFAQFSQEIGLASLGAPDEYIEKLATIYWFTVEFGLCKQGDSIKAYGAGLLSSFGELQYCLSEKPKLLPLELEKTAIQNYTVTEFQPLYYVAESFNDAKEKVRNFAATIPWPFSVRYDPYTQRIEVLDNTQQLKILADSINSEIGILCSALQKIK
Assay: Cell Based Phenylalanine Flux Assay
Conditions: A375 cells expressing human R408W PAH; 24 hrs compound incubation; 13C-Tyrosine by LC-MS; average where tested multiple times; read-out: AC50

AC50 [nM] | Structure (SMILES)
< 500 | O=C(c1nnc(-c2cccnc2)o1)N1CCc2[nH]cnc2[C@H]1c1cc2ccccc2cn1 [Example 445, (R)-(4-(isoquinolin-3-yl)-6,7-dihydro-1H-imidazo[4,5-c]pyridin-5(4H)-yl)(5-(pyridin-3-yl)-1,3,4-oxadiazol-2-yl)methanone]
< 500 | Cc1c(-c2nnc(C(=O)N3CCc4[nH]cnc4[C@H]3c3cc4ccccc4cn3)o2)cnn1C [Example 446, (R)-(5-(1,5-dimethyl-1H-pyrazol-4-yl)-1,3,4-oxadiazol-2-yl)(4-(isoquinolin-3-yl)-6,7-dihydro-1H-imidazo[4,5-c]pyridin-5(4H)-yl)methanone]
< 500 | Cn1nccc1-c1nnc(C(=O)N2CCc3[nH]cnc3[C@H]2c2cc3ccccc3cn2)o1 [Example 447, (R)-(4-(isoquinolin-3-yl)-6,7-dihydro-1H-imidazo[4,5-c]pyridin-5(4H)-yl)(5-(1-methyl-1H-pyrazol-5-yl)-1,3,4-oxadiazol-2-yl)methanone]
< 500 | O=C(c1nnc(-c2ccncc2)o1)N1CCc2[nH]cnc2[C@H]1c1cc2ccccc2cn1 [Example 448, (R)-(4-(isoquinolin-3-yl)-6,7-dihydro-1H-imidazo[4,5-c]pyridin-5(4H)-yl)(5-(pyridin-4-yl)-1,3,4-oxadiazol-2-yl)methanone]
< 500 | O=C(c1nnc(-c2cnn(C3CCC3)c2)o1)N1CCc2[nH]cnc2[C@H]1c1cc2ccccc2cn1 [Example 449, (R)-(5-(1-cyclobutyl-1H-pyrazol-4-yl)-1,3,4-oxadiazol-2-yl)(4-(isoquinolin-3-yl)-6,7-dihydro-1H-imidazo[4,5-c]pyridin-5(4H)-yl)methanone]
< 500 | Cc1nn(C)cc1-c1nnc(C(=O)N2CCc3[nH]cnc3[C@H]2c2cc3ccccc3cn2)o1 [Example 450, (R)-(5-(1,3-dimethyl-1H-pyrazol-4-yl)-1,3,4-oxadiazol-2-yl)(4-(isoquinolin-3-yl)-6,7-dihydro-1H-imidazo[4,5-c]pyridin-5(4H)-yl)methanone]
< 500 | O=C(c1nnc(-c2cc[nH]n2)o1)N1CCc2[nH]cnc2[C@H]1c1cc2ccccc2cn1 [Example 451, (R)-(5-(1H-pyrazol-3-yl)-1,3,4-oxadiazol-2-yl)(4-(isoquinolin-3-yl)-6,7-dihydro-1H-imidazo[4,5-c]pyridin-5(4H)-yl)methanone]
< 500 | O=C(c1cnn2cc(C3CC3)ccc12)N1CCc2[nH]cnc2[C@H]1c1cc2ccccc2cn1 [Example 452, (R)-(6-cyclopropylpyrazolo[1,5-a]pyridin-3-yl)(4-(isoquinolin-3-yl)-6,7-dihydro-1H-imidazo[4,5-c]pyridin-5(4H)-yl)methanone]
< 500 | COCCc1ccc2c(C(=O)N3CCc4[nH]cnc4[C@H]3c3cc4ccccc4cn3)cnn2c1 [Example 453, (R)-(4-(isoquinolin-3-yl)-6,7-dihydro-1H-imidazo[4,5-c]pyridin-5(4H)-yl)(6-(2-methoxyethyl)pyrazolo[1,5-a]pyridin-3-yl)methanone]
500 to 1000 | O=C(c1nnc(-c2cn[nH]c2)o1)N1CCc2[nH]cnc2[C@H]1c1cc2ccccc2cn1 [Example 454, (R)-(5-(1H-pyrazol-4-yl)-1,3,4-oxadiazol-2-yl)(4-(isoquinolin-3-yl)-6,7-dihydro-1H-imidazo[4,5-c]pyridin-5(4H)-yl)methanone]
< 500 | Cc1cnn(C)c1-c1nnc(C(=O)N2CCc3[nH]cnc3[C@H]2c2cc3ccccc3cn2)o1 [Example 455, (R)-(5-(1,4-dimethyl-1H-pyrazol-5-yl)-1,3,4-oxadiazol-2-yl)(4-(isoquinolin-3-yl)-6,7-dihydro-1H-imidazo[4,5-c]pyridin-5(4H)-yl)methanone]
< 500 | Cn1cc(-c2ccc3c(C(=O)N4CCc5[nH]cnc5[C@H]4c4cc5ccccc5cn4)cnn3c2)cn1 [Example 456, (R)-(4-(isoquinolin-3-yl)-6,7-dihydro-1H-imidazo[4,5-c]pyridin-5(4H)-yl)(6-(1-methyl-1H-pyrazol-4-yl)pyrazolo[1,5-a]pyridin-3-yl)methanone]
< 500 | CN1CCN(c2ccc3c(C(=O)N4CCc5[nH]cnc5[C@H]4c4cc5ccccc5cn4)cnn3c2)CC1 [Example 457, (R)-(4-(isoquinolin-3-yl)-6,7-dihydro-1H-imidazo[4,5-c]pyridin-5(4H)-yl)(6-(4-methylpiperazin-1-yl)pyrazolo[1,5-a]pyridin-3-yl)methanone]
< 500 | O=C(c1cnn2cc(N3CCOCC3)ccc12)N1CCc2[nH]cnc2[C@H]1c1cc2ccccc2cn1 [Example 458, (R)-(4-(isoquinolin-3-yl)-6,7-dihydro-1H-imidazo[4,5-c]pyridin-5(4H)-yl)(6-morpholinopyrazolo[1,5-a]pyridin-3-yl)methanone]
< 500 | O=C(c1cnn2cc(Br)c(Cl)cc12)N1CCc2[nH]cnc2[C@H]1c1cc2ccccc2cn1 [Example 459, (R)-(6-bromo-5-chloropyrazolo[1,5-a]pyridin-3-yl)(4-(isoquinolin-3-yl)-6,7-dihydro-1H-imidazo[4,5-c]pyridin-5(4H)-yl)methanone]

Further lines, the molecule ahead of its results:

Structure (SMILES) | AC50 [nM]
C[C@@H]1CN(C(=O)c2nnc(C(C)(C)C)o2)[C@@H](c2cc3ccccc3cn2)c2nc[nH]c21 [Example 429, (5-(tert-butyl)-1,3,4-oxadiazol-2-yl)((4S,7R)-4-(isoquinolin-3-yl)-7-methyl-6,7-dihydro-1H-imidazo[4,5-c]pyridin-5(4H)-yl)methanone] | 1000 to 5000
C[C@@H]1CN(C(=O)c2nnc(C(C)(C)C)o2)[C@H](c2cc3ccccc3cn2)c2nc[nH]c21 [Example 430, (5-(tert-butyl)-1,3,4-oxadiazol-2-yl)((4R,7R)-4-(isoquinolin-3-yl)-7-methyl-6,7-dihydro-1H-imidazo[4,5-c]pyridin-5(4H)-yl)methanone] | < 500
O=C(c1cnn2ccccc12)N1CCc2[nH]cnc2[C@H]1c1cc2ccccc2cn1 [Example 431, (R)-(4-(isoquinolin-3-yl)-6,7-dihydro-1H-imidazo[4,5-c]pyridin-5(4H)-yl)(pyrazolo[1,5-a]pyridin-3-yl)methanone] | < 500
O=C(c1nnc(N2CCOCC2)o1)N1CCc2[nH]cnc2[C@H]1c1cc2ccccc2cn1 [Example 433, (R)-(4-(isoquinolin-3-yl)-6,7-dihydro-1H-imidazo[4,5-c]pyridin-5(4H)-yl)(5-morpholino-1,3,4-oxadiazol-2-yl)methanone] | 500 to 1000
CC(C)(C)c1ncc(C(=O)N2CCc3[nH]cnc3[C@H]2c2cc3ccccc3cn2)o1 [Example 435, (R)-(2-(tert-butyl)oxazol-5-yl)(4-(isoquinolin-3-yl)-6,7-dihydro-1H-imidazo[4,5-c]pyridin-5(4H)-yl)methanone] | < 500
O=C(c1nnc(-c2ncccc2F)o1)N1CCc2[nH]cnc2[C@H]1c1cc2ccccc2cn1 [Example 437, (R)-(5-(3-fluoropyridin-2-yl)-1,3,4-oxadiazol-2-yl)(4-(isoquinolin-3-yl)-6,7-dihydro-1H-imidazo[4,5-c]pyridin-5(4H)-yl)methanone] | < 500
COc1ccc(-c2nnc(C(=O)N3CCc4[nH]cnc4[C@H]3c3cc4ccccc4cn3)o2)nc1 [Example 438, (R)-(4-(isoquinolin-3-yl)-6,7-dihydro-1H-imidazo[4,5-c]pyridin-5(4H)-yl)(5-(5-methoxypyridin-2-yl)-1,3,4-oxadiazol-2-yl)methanone] | < 500
Cc1ccc(-c2nnc(C(=O)N3CCc4[nH]cnc4[C@H]3c3cc4ccccc4cn3)o2)nc1 [Example 439, (R)-(4-(isoquinolin-3-yl)-6,7-dihydro-1H-imidazo[4,5-c]pyridin-5(4H)-yl)(5-(5-methylpyridin-2-yl)-1,3,4-oxadiazol-2-yl)methanone] | < 500
O=C(c1nnc(-c2cnn(C(F)F)c2)o1)N1CCc2[nH]cnc2[C@H]1c1cc2ccccc2cn1 [Example 440, (R)-(5-(1-(difluoromethyl)-1H-pyrazol-4-yl)-1,3,4-oxadiazol-2-yl)(4-(isoquinolin-3-yl)-6,7-dihydro-1H-imidazo[4,5-c]pyridin-5(4H)-yl)methanone] | < 500
Cn1ccc(-c2nnc(C(=O)N3CCc4[nH]cnc4[C@H]3c3cc4ccccc4cn3)o2)n1 [Example 441, (R)-(4-(isoquinolin-3-yl)-6,7-dihydro-1H-imidazo[4,5-c]pyridin-5(4H)-yl)(5-(1-methyl-1H-pyrazol-3-yl)-1,3,4-oxadiazol-2-yl)methanone] | < 500
O=C(c1nnc(-c2ccc(C(F)(F)F)cn2)o1)N1CCc2[nH]cnc2[C@H]1c1cc2ccccc2cn1 [Example 442, (R)-(4-(isoquinolin-3-yl)-6,7-dihydro-1H-imidazo[4,5-c]pyridin-5(4H)-yl)(5-(5-(trifluoromethyl)pyridin-2-yl)-1,3,4-oxadiazol-2-yl)methanone] | < 500
Cn1cnc(-c2nnc(C(=O)N3CCc4[nH]cnc4[C@H]3c3cc4ccccc4cn3)o2)c1 [Example 443, (R)-(4-(isoquinolin-3-yl)-6,7-dihydro-1H-imidazo[4,5-c]pyridin-5(4H)-yl)(5-(1-methyl-1H-imidazol-4-yl)-1,3,4-oxadiazol-2-yl)methanone] | < 500
Cn1cncc1-c1nnc(C(=O)N2CCc3[nH]cnc3[C@H]2c2cc3ccccc3cn2)o1 [Example 444, (R)-(4-(isoquinolin-3-yl)-6,7-dihydro-1H-imidazo[4,5-c]pyridin-5(4H)-yl)(5-(1-methyl-1H-imidazol-5-yl)-1,3,4-oxadiazol-2-yl)methanone] | 500 to 1000
